Reference: ChEMBL document CHEMBL4184249, “Structural development of tetrachlorophthalimides as liver X receptor β (LXRβ)-selective agonists with improved aqueous solubility” (Bioorg Med Chem Lett, 2018)
Activity calls are given as the source filed them. No cut-off for these calls is given here.

Tests used:
[1] = molecular target: T1, Retinoic acid receptor RXR-gamma (Homo sapiens) (UniProt P48443); assay: Agonist activity at GAL4-tagged RXRgamma (unknown origin) expressed in HEK293 cells co-expressing CMX-beta-galactosidase at 0.3 to 30 uM incubated for 16 hrs by luciferase reporter gene assay; assay type: cell-based
T1 sequence (whole entry): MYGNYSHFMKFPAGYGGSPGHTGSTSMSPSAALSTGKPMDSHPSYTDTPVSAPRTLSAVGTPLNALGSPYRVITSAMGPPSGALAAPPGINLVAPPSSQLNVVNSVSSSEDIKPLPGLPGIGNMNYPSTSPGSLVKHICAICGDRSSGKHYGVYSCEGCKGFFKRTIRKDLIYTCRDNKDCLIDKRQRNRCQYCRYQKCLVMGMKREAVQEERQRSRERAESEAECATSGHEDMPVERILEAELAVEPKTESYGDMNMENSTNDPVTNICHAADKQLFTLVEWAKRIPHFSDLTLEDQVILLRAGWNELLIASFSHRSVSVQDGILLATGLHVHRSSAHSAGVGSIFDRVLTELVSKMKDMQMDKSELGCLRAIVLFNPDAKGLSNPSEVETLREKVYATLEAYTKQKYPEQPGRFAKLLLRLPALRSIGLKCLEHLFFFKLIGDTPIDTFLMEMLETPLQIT

[2] = molecular target: Oxysterols receptor LXR-beta (Homo sapiens, UniProt P55055); assay: Agonist activity at LXRbeta ligand-binding domain (unknown origin) incubated for 1.5 hrs using fluorescein-labeled coactivator peptide by TR-FRET competitive binding assay
[3] = molecular target: T2, Oxysterols receptor LXR-beta (Homo sapiens, UniProt P55055); assay: Agonist activity at human LXRbeta expressed in HEK293 cells co-expressing CMX-beta-galactosidase incubated for 16 hrs by luciferase reporter gene assay; assay type: cell-based
T2 sequence (P55055 whole entry): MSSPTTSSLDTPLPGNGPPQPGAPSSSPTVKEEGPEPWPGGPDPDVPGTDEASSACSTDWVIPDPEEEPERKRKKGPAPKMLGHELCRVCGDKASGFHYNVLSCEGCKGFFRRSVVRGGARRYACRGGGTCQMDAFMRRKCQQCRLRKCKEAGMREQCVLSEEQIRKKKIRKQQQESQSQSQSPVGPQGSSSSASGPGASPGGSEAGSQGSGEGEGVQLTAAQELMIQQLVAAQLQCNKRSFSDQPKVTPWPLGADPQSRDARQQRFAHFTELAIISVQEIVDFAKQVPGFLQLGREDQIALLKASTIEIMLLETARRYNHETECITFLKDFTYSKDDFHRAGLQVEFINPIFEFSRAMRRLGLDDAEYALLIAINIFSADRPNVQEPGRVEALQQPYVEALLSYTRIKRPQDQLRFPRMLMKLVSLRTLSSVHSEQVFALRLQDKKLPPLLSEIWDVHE

[4] = molecular target: T3, Bile acid receptor (Homo sapiens) (UniProt Q96RI1); assay: Agonist activity at GAL4-tagged FXR (unknown origin) expressed in HEK293 cells co-expressing CMX-beta-galactosidase at 0.3 to 30 uM incubated for 16 hrs by luciferase reporter gene assay; assay type: cell-based
T3 sequence (whole entry): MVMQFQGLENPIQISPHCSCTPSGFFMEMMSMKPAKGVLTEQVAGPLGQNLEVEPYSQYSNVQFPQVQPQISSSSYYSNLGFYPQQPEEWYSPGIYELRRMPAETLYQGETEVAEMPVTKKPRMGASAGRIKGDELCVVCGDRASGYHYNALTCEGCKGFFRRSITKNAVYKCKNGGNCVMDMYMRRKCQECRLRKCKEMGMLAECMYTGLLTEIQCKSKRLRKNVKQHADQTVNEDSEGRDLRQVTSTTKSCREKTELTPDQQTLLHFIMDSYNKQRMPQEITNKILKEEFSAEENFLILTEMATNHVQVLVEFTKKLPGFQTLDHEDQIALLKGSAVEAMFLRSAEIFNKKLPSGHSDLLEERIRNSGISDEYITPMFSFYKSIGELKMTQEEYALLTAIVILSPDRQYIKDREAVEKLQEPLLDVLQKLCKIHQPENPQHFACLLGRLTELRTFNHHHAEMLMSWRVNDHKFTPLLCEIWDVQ

[5] = molecular target: T4, Oxysterols receptor LXR-beta (Mus musculus) (UniProt Q60644); assay: Agonist activity at mouse LXRbeta expressed in HEK293 cells co-expressing CMX-beta-galactosidase incubated for 16 hrs by luciferase reporter gene assay relative to T0901317; assay type: cell-based
T4 sequence (whole entry): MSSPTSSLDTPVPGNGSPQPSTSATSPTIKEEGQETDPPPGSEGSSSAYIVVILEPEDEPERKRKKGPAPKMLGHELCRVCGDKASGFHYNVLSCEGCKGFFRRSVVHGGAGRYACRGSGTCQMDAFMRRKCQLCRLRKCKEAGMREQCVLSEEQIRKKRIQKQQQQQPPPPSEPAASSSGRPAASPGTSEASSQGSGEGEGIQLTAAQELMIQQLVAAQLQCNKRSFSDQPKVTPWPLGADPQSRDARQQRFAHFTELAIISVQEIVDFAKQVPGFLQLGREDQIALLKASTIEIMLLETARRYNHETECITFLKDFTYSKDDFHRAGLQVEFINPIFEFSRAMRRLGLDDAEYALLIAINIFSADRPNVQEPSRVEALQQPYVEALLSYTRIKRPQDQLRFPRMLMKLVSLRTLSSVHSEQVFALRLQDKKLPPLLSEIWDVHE

[6] = molecular target: T5, Oxysterols receptor LXR-beta (Homo sapiens) (UniProt P55055); assay: Agonist activity at LXRbeta in human THP1 cells assessed as increase in ABCA1 mRNA expression at 0.1 uM by real-time quantitative RT-PCR method; assay type: cell-based
T5 sequence (whole entry): T2 sequence (P55055 whole entry)

[7] = molecular target: T6, Oxysterols receptor LXR-alpha (Mus musculus) (UniProt Q9Z0Y9); assay: Agonist activity at mouse LXRalpha expressed in HEK293 cells co-expressing CMX-beta-galactosidase at 30 uM incubated for 16 hrs by luciferase reporter gene assay; assay type: cell-based
T6 sequence (whole entry): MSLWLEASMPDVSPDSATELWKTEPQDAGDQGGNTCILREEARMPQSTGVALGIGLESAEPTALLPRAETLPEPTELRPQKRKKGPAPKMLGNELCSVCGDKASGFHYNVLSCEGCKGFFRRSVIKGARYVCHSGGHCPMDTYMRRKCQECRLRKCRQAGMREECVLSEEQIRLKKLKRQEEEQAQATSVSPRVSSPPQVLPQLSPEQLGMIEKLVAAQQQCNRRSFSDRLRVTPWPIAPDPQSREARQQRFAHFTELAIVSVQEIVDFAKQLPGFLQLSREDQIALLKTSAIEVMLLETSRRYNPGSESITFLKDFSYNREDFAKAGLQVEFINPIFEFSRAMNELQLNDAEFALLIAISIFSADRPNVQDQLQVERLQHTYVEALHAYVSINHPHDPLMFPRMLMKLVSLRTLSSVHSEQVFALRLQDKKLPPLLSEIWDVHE

For `O=C1c2c(Cl)c(Cl)c(Cl)c(Cl)c2C(=O)N1c1ccccc1/C=C/c1cccs1`, the Activity [1] was “inactive”, the EC50 [2] was 40.4 nM and the EC50 [3] was 559 nM. For the same compound, the Efficacy [4] was 9%, the Efficacy [5] was 24% and the Activity [6] was “Active”. The Activity [7] was “inactive”.
